Laboratory results from patent US8772284B2, “Method of treating cancer using combination of a bifunctional alkylating agent and DNA repair inhibitors” (Academia Sinica, priority 2009, dated 2014).

Assays:
CL-1-5 xenografts = details: CL-1-5 xenograft; LY294002 40 mg/Kg QD×9, triciribine 1 mg/Kg Q2D×5, BO-1509 10 mg/Kg
NTUB1 cells = assay: Cell viability, WST-1 assay; assay type: cell-based, human; details: agent alone
Text: (§1) Cell Lines and Cell Culture. H460 (human lung large cell carcinoma cells), H1299 (human lung large cell carcinoma p53-deficient cells), PC3 (human prostate carcinoma cells), U87 (human glioma cells), and MCF7 (human breast carcinoma cells) were purchased from the American Type Culture Collection (Rockville, Md.). OEC-M1 (human gingival squamous cell carcinoma cells) was obtained from Dr. C.-L. Meng (National Defense Medical College, Taiwan). NTUB1 (human bladder transitional carcinoma cells) and the cisplatin-resistant sub-line NTUB1/P were provided by Dr. Y.-S. Pu (National Taiwan University Hospital, Taiwan). CL-1-5 (human lung adenocarcinoma cells) was obtained from Dr. P. C. Yang (National Taiwan University). All cell lines (except U87, which was grown in MEM medium) were cultured in RPMI1640 medium supplemented with 10% FBS and antibiotics, and incubated at 37° C. in a humidified atmosphere with 5% CO2.
(§2) Measurement of Cell Viability. Cell viability was assessed using the cell proliferation reagent WST-1 (Roche Molecular Biochemicals, Penzberg, Germany), which is a tetrazolium salt that is cleaved by mitochondrial dehydrogenase in viable cells. In brief, 2,000-7,000 cells were seeded in each well of 96-well plates and incubated at 37° C. overnight prior to drug treatment. After a 72-h incubation with BO-1012 alone (0.1˜80 μM), ATO alone (1˜8 μM), or BO-1012 plus ATO, WST-1 solution was added to each well at a 1:10 dilution, and cells were incubated at 37° C. in 5% CO2 for 4 h. Cell viability was assessed by absorbance at 460 nm using an automatic enzyme-linked immunosorbent assay (ELISA) plate reader. The IC50 value for each drug, alone or in combination, was calculated using CompuSyn software (version 1.0.1; CompuSyn, Inc.). The interactions between ATO and BO-1012 were evaluated by the Chou-Talalay combination indices (CI), where CI<1 indicates synergy; CI=1, additivity; and CI>1, antagonism.

[1] = tested on: NTUB1/P cells (cisplatin-resistant); assay: Cell viability, WST-1 assay; assay type: cell-based, human; details: for IC50: NTUB1/P cells, agent alone
Text: as §1, §2

[2] = tested on: NTUB1/P cells (cisplatin-resistant); details: NTUB1/P vs NTUB1, stated with ref [37]; cited from earlier work
DNA ICLs in H460 cells = assay: Modified comet assay, formation and repair of DNA ICLs; assay type: cell-based, human; details: treated 1 h
Procedure: (§3) H460 cells were treated with various concentrations of BO-1012, melphalan, or thiotepa for 1 h and then subjected to the modified comet assay as described in Materials and Methods. Percentage of DNA ICLs was calculated by the percentage of decrease in tail moment. […] H460 cells were treated with 40 μM BO-1012 for 1 h, washed, and then treated with 8 μM ATO for 16, 24, and 48 h. *, p<0.05 as compared to BO-1012 alone at the indicated time. […] H460 cells were treated with BO-1012 and ATO, alone or in combination, as described above. After treatment, the detection of γH2AX (green) immunofluorescence staining was performed as described in Materials and Methods. Nuclei were stained by DAPI (blue).
Modified Single-Cell Gel Electrophoresis (Comet) and DNA ICL Repair Assays. The formation and the repair of DNA ICLs in H460 cells was analyzed using a modified comet assay as described previously.

[3] = tested on: γH2AX nuclear foci in H460 cells; assay: γH2AX nuclear foci, immunofluorescence staining; assay type: cell-based, human; details: time not stated
Procedure: as §3
Immunofluorescence Staining. H460 cells were cultured onto slides and then treated with BO-1012 and ATO, separately and in combination as described above, for 24, 48, or 72 h. To visualize γH2AX, cells were washed with cold PBS and fixed with 100% ice-cold methanol for 30 min. Slides were washed with PBS and incubated with anti-γH2AX antibody for 2 h at room temperature followed by Alexa Fluor 488-conjugated secondary antibodies (Molecular Probes, Eugene, Oreg.) and DAPI. After mounting with 50% glycerol, slides were subjected to confocal image analysis (Radiance 2100 System, Bio-Rad). Cells with at least four γH2AX foci in nuclei were counted as positive.

H460 xenografts = assay: H460 xenograft mouse model; assay type: in vivo, nude mice; details: 2.5 mg/kg BO-1012 and/or 5 mg/kg ATO, i.v., QD×5
NTUB1 xenografts = assay: NTUB1 xenograft mouse model; assay type: in vivo, nude mice; details: 2.5 mg/kg BO-1012 or 5 mg/kg ATO, i.v., QD×5
NTUB1/P xenografts = assay: NTUB1/P xenograft mouse model; assay type: in vivo, nude mice; details: 5 mg/kg ATO, i.v., QD×5

Compound	IC50 (NTUB1 cells)	IC50 [1]	formation of ICLs (DNA ICLs in H460 cells)	also measured
O=c1cc(N2CCOCC2)oc2c(-c3ccccc3)cccc12 [LY294002, 2-(4-morpholinyl)-8-phenyl-chromone]	–	–	–	suppression of tumor growth (CL-1-5 xenografts): unable to suppress the tumor growth at all
N.N.[Cl][Pt][Cl] [cisplatin]	3.6 µM	212 µM	–	fold more resistant to cisplatin than the parental cells [2]: 60 fold
N[C@@H](Cc1ccc(N(CCCl)CCCl)cc1)C(=O)O [melphalan]	–	–	increased in a dose-dependent fashion	–
S=P(N1CC1)(N1CC1)N1CC1 [thiotepa]	–	–	increased in a dose-dependent fashion	–
arsenic trioxide [ATO]	0.4 µM	3.8 µM	did not cause ICLs	fold more resistant, NTUB1/P than NTUB1 cells ([1]; ratio of IC50 values): 9.5 fold; percentage of cells with γH2AX foci [3]: 26.8%; time to achieve a tumor volume of 500 mm^3 (H460 xenografts): 7.1 days; growth of NTUB1 tumors (NTUB1 xenografts): did not effectively suppress; growth of NTUB1/P tumors (NTUB1/P xenografts): did not effectively suppress
